# Where a SMILES comes first, the peptide text is derived from it.
# Columns and labels:
# [1] = test system: P. acnes (IS, DR), clinically isolated strain with clindamycin resistance; conditions: clindamycin-resistant clinical isolate; BHI broth, anaerobic, 37°C, 72 h, A600; mean of three independent experiments in duplicates; ND = no detectable activity
# Experimental: (§1) The strains of P. acnes were cultured in brain heart infusion (BHI) broth (HKM, Guangzhou, China) with 1% glucose at 37°C under an anaerobic atmosphere using MGC Anaeropack systems (Mitsubishi, Gas Chemical Co., Inc, Japan), respectively. […] S. epidermidis (09A3726 and 09B2490) and S. aureus (ATCC 2592) were grown in LB (Luria-Bertani) broth as our previous report.
# (§2) Briefly, samples were prepared as a stock solution in 0.9% salt water at a series of concentration. 890 µl special broth (BHI broth for P. acnes, LB broth for S. epidermidis and S. aureus), 100 µl bacterial suspension (10^8 CFU/ml) and 10 µl test sample were put together in the test tube under anaerobic conditions at 37°C for 72 h for P. acnes and under aerobic conditions at 37°C for 24 or 48 h for S. epidermidis and S. aureus. An absorbance at 600 nm was measured by a microplate reader to estimate bacterial growth. The MIC was defined as the lowest concentration of test sample completely inhibiting microorganism’s growth.
# P. acnes ATCC11827 = conditions: BHI broth, anaerobic, 37°C, 72 h, A600; mean of three independent experiments in duplicates; ND = no detectable activity
# Experimental: as §1, §2
# P. acnes ATCC6919 = conditions: BHI broth, anaerobic, 37°C, 72 h, A600; mean of three independent experiments in duplicates; ND = no detectable activity
# Experimental: as §1, §2
# S. epidermidis 09A3726 = conditions: LB broth, aerobic, 37°C, 24 or 48 h, A600; mean of three independent experiments in duplicates; ND = no detectable activity
# Experimental: as §1, §2
# S. epidermidis 09B2490 = conditions: LB broth, aerobic, 37°C, 24 or 48 h, A600; mean of three independent experiments in duplicates
# Experimental: as §1, §2
# human red blood cells = conditions: up to 320 µg/ml, 37°C, 30 min, A540, relative to 1% Triton X-100, mean of five experiments
# Experimental: Hemolysis assay was undertaken using human red blood cells in liquid medium as our previous reports. Serial dilutions of testing sample were incubated with human red cells at 37°C. After the incubation for 30 min, the cells were centrifuged and the absorbance in the supernatant was measured at 540 nm. Maximum hemolysis was determined by adding 1% Triton X-100 to a sample of cells. Hemolysis of testing samples was calculated as the percentage of cytotoxicity of Triton X-100.
# [2] = Effect of human plasma on antibacterial activity (inhibition zone); format: in vitro ADME; conditions: 100 µM, 37°C, inhibition zone on P. acnes ATCC6919, S. epidermidis 09A3726, S. aureus 09B2499, three experiments
# Experimental: LZ1 or human cathelicidin antimicrobial peptide LL-37 (control) was mixed with human plasma (final concentration 100 µM) for 0, 0.5, 1, 2, 4, 6 and 8 hours at 37°C, respectively. Residual antibacterial activity was evaluated by using 10 µl aliquot of the mixture to measure inhibitory zone on bacterial growth on BHI or LB broth containing 0.7% agar as previously described. The diameters of inhibition zones were recorded after 72-hour incubation for P. acnes and 24-hour incubation for S. epidermidis and S. aureus, respectively.
# S. aureus 09B2499 = conditions: LB broth, aerobic, 37°C, 24 or 48 h, A600; mean of three independent experiments in duplicates
# [3] = test system: Human HaCaT keratinocyte cells; conditions: 20 to 200 µg/ml, 24-h treatment, MTT, A570, mean of five experiments
# Experimental: Human HaCaT keratinocyte cells (1×10^5 cells/ml, obtained from Cell Bank of Kunming Institute of Zoology, Chinese Academy of Sciences) were cultured in 96-well plates with Dulbecco’s modified Eagle’s medium (DMEM, Gibco) containing 10% fetal calf serum and penicillin (100 u/ml)-streptomycin (100 mg/ml) at 37°C in a humidified 5% CO2 atmosphere. Cell viability was evaluated by conventional 3-(4, 5-dimethyl-2-thiazolyl)-2, 5-diphenyl-2H-tetrazolium bromide (MTT) reduction assays. After a 24-h treatment by testing sample, 20 µl of MTT (5 mg/ml) was added to each well. The MTT solution was then removed and 200 µl dimethyl sulfoxide (DMSO) was added to solubilize the MTT-formazan cristals in living cells. The absorbance at 570 nm of the resulting solution was measured. The experiments were performed in triplicate.
# [4] = test system: P. acnes (ATCC6919)-induced ear swelling; experiment: P. acnes-induced ear swelling in mice; format: in vivo, Kunming mice; conditions: mean of four experiments
# P. acnes (ATCC6919) = experiment: P. acnes colonization within mouse ear (CFU count); format: in vivo, Kunming mice; conditions: for P. acnes colonized within the ear: mean of four experiments
# Experimental: As described previously, P. acnes (ATCC6919) was grown to the exponential-phase in BHI broth and then centrifuged at 1000 g for 10 min. The bacterium pellet was then washed twice and re-suspended in 0.9% salt water (5×10^8 CFU/ml). Kunming mice (20 ± 2 g) were anesthetised by intraperitoneal (IP) administration of ketamine (50 mg/kg) and xylazine (15 mg/kg), and then 20 µl P. acnes solution was intradermally injected into left ears of the mice. Right ears received the same volume of 0.9% salt water. Placebo or 0.2% LZ1 gel (Polyethylene Glycol (PEG) 400: PEG 4000, 1:1) was applied on the surface of right ear skin after injection with P. acnes or saline. […] Ear thickness after 24 h bacterial injection was measured using a micro caliper.
# To determine P. acnes number in the ear, the left ear was cut off after 24 h bacterial injection and the mice were sacrificed immediately by cervical dislocation. The ears were wiped to remove gel and then homogenized in 0.9% salt water (1 ml per ear) with a hand tissue grinder. CFUs of P. acnes in the ear were enumerated by plating serial dilutions of the homogenate on BHI plates and the bacterial numbers were counted after 72 h incubation under anaerobic conditions at 37°C.
# To further investigate the therapeutical effect, the increase in ear thickness and the P. acnes number in the ear after bacterial injection were determined continuously on day 2 to day 5 as described above. […] All the experimental protocols to use animals were approved by the Animal Care and Use Committee at Kunming Institute of Zoology, Chinese Academy of Sciences.
# IL-1β = IL-1β in ear homogenate, ELISA; format: in vivo, Kunming mice
# Experimental: (§3) Ears of Kunming mice were injected with live P. acnes (ATCC 6919) as described above. The ear was excised on day 1 to day 5 after bacterial injection respectively, and then homogenized in 0.9% salt water (1 ml per ear) with a hand tissue grinder. The supernatant was collected after the centrifugation at 2000 × g for 10 min and then was used for cytokine measurement. The concentration of TNF-α and IL-1β was measured by using enzyme-linked immunosorbent assay kits (Excell Bio, Shanghai, China).
# TNF-α = TNF-α in ear homogenate, ELISA; format: in vivo, Kunming mice; conditions: day 1 to day 5, epicutaneous 0.2% gel, in words
# Experimental: as §3
# [5] = test system: infiltrated inflammatory cells; experiment: Histological check of mouse ears (HE stain); format: in vivo, Kunming mice; conditions: 24 h after P. acnes challenge, epicutaneous 0.2% gel, in words
# Text: Ears of Kunming mice were excised and fixed in neutral-buffered 10% formalin solution and embedded in paraffin by routine procedures. The slides were cut at approximately 4 µm and stained routinely with haematoxylin and eosin (HE). Images were obtained using a Nikon Eclipse 80i microscope (Nikon, Japan).
compound,measurement,setting,value
CC(C)[C@H](N)C(=O)N[C@@H](CCCCN)C(=O)N[C@@H](CCCNC(=N)N)C(=O)N[C@@H](Cc1c[nH]c2ccccc12)C(=O)N[C@@H](CCCCN)C(=O)N[C@@H](CCCCN)C(=O)N[C@@H](Cc1c[nH]c2ccccc12)C(=O)N[C@@H](Cc1c[nH]c2ccccc12)C(=O)N[C@@H](CCCNC(=N)N)C(=O)N[C@@H](CCCCN)C(=O)N[C@@H](Cc1c[nH]c2ccccc12)C(=O)N[C@@H](CCCCN)C(=O)N[C@@H](CCCCN)C(=O)N[C@@H](Cc1c[nH]c2ccccc12)C(=O)N[C@H](C(N)=O)C(C)C [LZ1] (H-VKRWKKWWRKWKKWV-NH2),MIC,[1],0.6 µg/mL
same,MIC,P. acnes ATCC11827,0.6 µg/mL
same,MIC,P. acnes ATCC6919,0.6 µg/mL
same,MIC,S. epidermidis 09A3726,4.7 µg/mL
same,MIC,S. epidermidis 09B2490,2.3 µg/mL
same,hemolytic activity,human red blood cells,no more than 5.2%
same,antibacterial activity after incubation with human plasma,[2]; 8 hours,could not be significantly affected
same,MIC,S. aureus 09B2499,2.3 µg/mL
same,effects on cell viabilities (cytotoxicity),[3],no more than 5.6%
"CCC[C@@H]1C[C@@H](C(=O)N[C@@H]([C@H]2O[C@H](SC)[C@H](OP(=O)(O)O)[C@@H](O)[C@H]2O)[C@H](C)Cl)N(C)C1 [clindamycin, clindamycin phosphate]","ear thickness, % of the control (un-challenged)","[4]; day 1 after P. acnes injection, 0.2% gel epicutaneous",147%
same,"ear thickness, % of the control (un-challenged)","[4]; day 2, 0.2% gel epicutaneous once per day",145%
same,"ear thickness, % of the control (un-challenged)","[4]; day 3, 0.2% gel epicutaneous once per day",130%
same,"ear thickness, % of the control (un-challenged)","[4]; day 4, 0.2% gel epicutaneous once per day",125%
same,"ear thickness, % of the control (un-challenged)","[4]; day 5, 0.2% gel epicutaneous once per day",105%
same,P. acnes colonized within the ear,"P. acnes (ATCC6919); Day 1, 0.2% gel epicutaneous",360±77 10^3 CFU per ear
same,P. acnes colonized within the ear,"P. acnes (ATCC6919); Day 2, 0.2% gel epicutaneous once per day",32±4.1 10^3 CFU per ear
same,P. acnes colonized within the ear,"P. acnes (ATCC6919); Day 3, 0.2% gel epicutaneous once per day",14±1.7 10^3 CFU per ear
same,P. acnes colonized within the ear,"P. acnes (ATCC6919); Day 4, 0.2% gel epicutaneous once per day",6±0.5 10^3 CFU per ear
same,P. acnes colonized within the ear,"P. acnes (ATCC6919); Day 5, 0.2% gel epicutaneous once per day",1.5±0.1 10^3 CFU per ear
same,reduction in the number of P. acnes colonized within the ear,"P. acnes (ATCC6919); day 2, versus vehicle",58.9%
same,reduction in the number of P. acnes colonized within the ear,"P. acnes (ATCC6919); day 3, versus vehicle",58.8%
same,reduction in the number of P. acnes colonized within the ear,"P. acnes (ATCC6919); day 4, versus vehicle",71.4%
same,reduction in the number of P. acnes colonized within the ear,"P. acnes (ATCC6919); day 5, versus vehicle",50%
same,IL-1β concentration in mouse ear,"IL-1β; day 1, 1 ml saline per ear, vehicle 483, three experiments",346 pg/mL
same,IL-1β concentration in mouse ear,"IL-1β; day 2, 1 ml saline per ear, vehicle 221, three experiments",83 pg/mL
same,IL-1β concentration in mouse ear,"IL-1β; day 3, 1 ml saline per ear, vehicle 48, three experiments",43 pg/mL
same,IL-1β concentration in mouse ear,"IL-1β; day 4, 1 ml saline per ear, vehicle 30, three experiments",45 pg/mL
same,IL-1β concentration in mouse ear,"IL-1β; day 5, 1 ml saline per ear, vehicle 41, three experiments",46 pg/mL
same,effect on TNF-α secretion induced by P. acnes challenge,TNF-α,no inhibitory effect
same,number of infiltrated inflammatory cells,[5],decreased infiltrated inflammatory cells
LL-37: human cathelicidin antimicrobial peptide LL-37 (control),antibacterial activity after incubation with human plasma,[2]; 1 hour,completely lost its antibacterial activity
